For test [1], the system named is S. flexneri 2457T. The test can be described thus: Shigella antibacterial assay (resazurin). Format: cell-based, Shigella flexneri. Conditions: S. flexneri 2457T, resazurin assay. How it is done: An antibacterial assay against S. flexneri 2457T was performed according to the previously described protocol ([40]). The antibacterial assay was used to determine the MIC90 values of potential inhibitors for S. flexneri 2457T. The assay measures the effect of compounds on the bacteria using resazurin (Thermo Fisher Scientific) measurement as surrogate of bacterial viability. Briefly, to perform the extracellular dose responses, compounds were pre-dispensed in DMSO, and threefold serial dilutions were made for each compound into 384-well plate format. Bacterial inoculum for the assay was prepared in MH medium, resulting at 1 × 10^6 CFU/mL, and 5 µL of this culture was dispensed per well. Then, plates were incubated at 37°C overnight. The resazurin reagent (10 µL) was added to each well followed by an incubation at RT and darkness for 3 hours. The fluorescence intensity of the assay plates was measured using microplate reader (EnVision, PerkinElmer). For MIC90 determination, data were normalized by using DMSO at a final concentration of 0.5% as the negative control (100% bacterial growth) and moxifloxacin at a final concentration of 20 µM as the positive control (0% bacterial growth). The experiment was done in duplicate.
On the technique in general: Alamar Blue is a resazurin reagent that responds to reducing activity.

The target in test [2] is S. flexneri 2457T-nl in THP-1 macrophages. Briefly: Shigella intra-macrophage survival dose-response assay (luciferase readout).
Protocol: The experimental protocol for the Shigella intra-macrophage survival screen is divided into three time segments: (i) THP-1 macrophage and bacteria preparation 1 day prior to compound screen assay, (ii) THP-1 differentiation, invasion, gentamicin treatment, dispensing of infected cells onto plates pre-dispensed with compounds to be tested, and the beginning of their incubation performed on the same day, and (iii) dispensing of the Nano-Luc substrate and luminescence readout after 18 hours of incubation.
The assay was adapted to the 1,536-well plate format for the HTS. A multidrop dispenser with the small tube metal tip cassette (Thermo Fisher Scientific) was used to seed 5 µL of the cell suspension to plates pre-dispensed with compounds to be tested that were transferred to RT 1–1.5 hours before adding infected cells. Plates were incubated for 18 hours at 37°C in a humidified atmosphere with 5% CO2.
After incubation, the bacterial count is quantified by luminescence readout. Luminescence correlated linearly with the number of viable bacteria. The Nano-Luc substrate solution was prepared according to the manufacturer (Nano-Glo Luciferase Assay System, Promega, Madison, WI, USA). A multidrop dispenser with the small tube metal tip cassette (Thermo Fisher Scientific) was used to dispense 2 µL of substrate per well, and plates were stored in the dark prior to reading. Luminescence was read (0.1 s/well) on a microplate reader (EnVision, PerkinElmer) after 30 minutes of incubation at RT.
The dose-response assay was performed following the above protocol using different plate formats.

Converted amounts (≈) assume the structure as drawn. Read-outs that look alike come from different tables or passages of the source.

In general, MIC90 refers to an inhibitory concentration at the 90% level, which refers to growth in some studies and to a panel of isolates in others. Low values mean higher susceptibility, high ones lower susceptibility. As a reminder, the IC50 is the midpoint of a concentration-inhibition curve. In the case of `COc1ccc(-c2ccn(CC[C@](C)(C(=O)NO)S(C)(=O)=O)c(=O)c2)c(F)c1` [PF-5081090, reference compound], the MIC90 in test [1] worked out at 0.2 µM (≈ 0.0825 µg/mL). The IC50 in test [2] (read-out: Shigella Intra-macrophage Survival IC50, commercially available antibiotics, luciferase assay) is 60 nM.
The compound `CO/N=C(\C(=O)N[C@@H]1C(=O)N2C(C(=O)O)=C(CSc3nc(=O)c(=O)[nH]n3C)CS[C@H]12)c1csc(N)n1` [Ceftriaxone, ceftriaxone, reference compound] showed an MIC90 in test [1] (Shigella flexneri) of 0.1 µM (≈ 0.0555 µg/mL). Further, in test [2] (Shigella flexneri, THP-1, read-out: Shigella Intra-macrophage Survival IC50), the 50% inhibitory concentration (IC50) is 10 nM.

The values are drawn from publication PMC10597453, “Novel inhibitors that target bacterial virulence identified via HTS against intra-macrophage survival of Shigella flexneri” (mSphere, 2023).
